Measured values as given in article PMC4140855, “Production of an Attenuated Phenol-Soluble Modulin Variant Unique to the MRSA Clonal Complex 30 Increases Severity of Bloodstream Infection” (PLoS Pathogens, 2014).

Legend:
Format in all cases: cell-based
human neutrophils [1] = experiment: Human neutrophil chemotaxis / Ca2+ flux with FPR2 inhibited by FLIPr; conditions: FLIPr 0.5 µg/ml, 20 min pre-incubation at room temperature, three donors, quadruplicate; for Chemotaxis with addition of FPR2 blocking agent FLIPr, 100 nM peptide: peptide 100 nM
Description: (§1) Next, we analyzed Ca^2+ flux as a general measure to test for neutrophil activation, as used in previous studies. HL60 cells stably transfected with different FPR receptor genes were used to determine which FPR receptors are differentially activated by PSMα3 versus PSMα3N22Y (Fig. 4A). […] At a peptide concentration of 100 nM, we observed a difference of ∼factor 2 in chemotactic activity comparing the two peptides when FPR1 recognition was inhibited by CHIPS, likely attributable to FPR2-mediated recognition. Owing to the overall ∼10 times lower capacity to stimulate FPR receptors other than FPR2, we observed no chemotaxis at that peptide concentration with addition of the FPR2 blocking agent FLIPr.
(A) Differential activation of FPRs by PSMα3 versus PSMα3N22Y was measured using synthetic peptides and Ca^2+ flux observed in HL60 cells stably transfected with the corresponding FPR genes as readout, using three biological and two technical replicates. The calculated Kd values are shown on the right. […] (B) Ca^2+ flux in human neutrophils upon addition of PSMα3 or PSMα3N22Y and inhibition by FLIPr (FPR2 inhibitor) or CHIPS (FPR1 inhibitor). […]
(§2) Human neutrophils were isolated from venous blood of healthy donors as described, [39]. Neutrophil chemotaxis and Ca^2+ flux were determined as previously described, [24]. […] Chemotaxis of neutrophils was determined using a transwell system (Costar) with analysis of neutrophil migration using fluorescence labeling. Calcium fluxes were monitored as a surrogate marker for chemotaxis since it can be measured more robustly and accurately than chemotaxis. For measurement of Ca^2+ fluxes, 5×10^6 neutrophils/ml were labeled with a fluorescent dye and analyzed with a FACScalibur (Becton Dickinson) as described. […] Measurements of 2,000 events were performed and Ca^2+ flux was expressed as relative fluorescence corrected for buffer controls. […] At the desired times, PMN lysis was determined by release of lactate dehydrogenase (LDH) (Cytotoxicity Detection Kit, Roche Applied Sciences).

FPR2 = target: T1, FPR2 (Homo sapiens, UniProt P25090); experiment: Ca2+ flux in HL60 cells stably transfected with FPR2; conditions: for Activation of FPR2 relative to FPR1 and FPR3: both peptides
T1 construct: expressed in transfected cells; host or cells: HL60 cells, stably transfected
T1 sequence (P25090 1-351): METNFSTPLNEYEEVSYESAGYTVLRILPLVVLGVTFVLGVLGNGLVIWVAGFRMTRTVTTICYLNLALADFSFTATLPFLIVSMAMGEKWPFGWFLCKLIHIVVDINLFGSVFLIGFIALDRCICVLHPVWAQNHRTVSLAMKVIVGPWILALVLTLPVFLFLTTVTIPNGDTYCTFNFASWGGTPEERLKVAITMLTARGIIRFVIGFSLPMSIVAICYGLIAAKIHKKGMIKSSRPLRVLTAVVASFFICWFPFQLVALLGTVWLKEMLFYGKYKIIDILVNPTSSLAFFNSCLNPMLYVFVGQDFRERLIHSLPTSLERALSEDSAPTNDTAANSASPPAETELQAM
Description: as §1
(A) Differential activation of FPRs by PSMα3 versus PSMα3N22Y was measured using synthetic peptides and Ca^2+ flux observed in HL60 cells stably transfected with the corresponding FPR genes as readout, using three biological and two technical replicates. The calculated Kd values are shown on the right. […] (B) Ca^2+ flux in human neutrophils upon addition of PSMα3 or PSMα3N22Y and inhibition by FLIPr (FPR2 inhibitor) or CHIPS (FPR1 inhibitor). Neutrophils were from three donors and the measurements were performed in quadruplicate. *, p<0.05; **, p<0.01; ***, p<0.001; ****, p<0.0001 (comparing values obtained with PSMα3 versus corresponding values obtained with PSMα3N22Y). TEXT PRINTED IN THE PICTURE: (A) PSMα3: Kd (nM): FPR1: 615.6 ± 101.2; Kd (nM): FPR2: 11.90 ± 1.90; Kd (nM): FPR3: 1377 ± 285 | (A) PSMα3 N22Y: Kd (nM): FPR1: 3039 ± 682; Kd (nM): FPR2: 10.81 ± 2.38; Kd (nM): FPR3: 953.0 ± 253.9
Synthetic PSM peptides were obtained from commercial vendors at a purity of >95%. They all carry the N-terminal N-formyl methionine as common for PSMs, which are secreted into the medium without a signal peptide. […]
as §2

human neutrophils [2] = experiment: PMN lysis (LDH release); conditions: 37°C, 1 h; for PMN lysis at high concentration: synthetic peptides at 10 µg/ml or higher
Description: (§3) Figure 5 PSMα3N22Y has diminished cytolytic activities. (A) PMN lysis of synthetic PSMα3N22Y versus PSMα3. Data are from 2 donors, measured in triplicate each after incubation at 37°C for 1 h. […] (B) Hemolysis of synthetic PSMα3N22Y versus PSMα3. Data are from 2 donors, measured in triplicate, after incubation at 37°C for 1 h. (C, D) PMN lysis and hemolysis, respectively, of culture filtrates from PSMα3N22Y- versus PSMα3-producing strains when expressed on plasmids. pTXΔ16 is the empty control vector. The background strain in all constructs is a PSM-free USA300 strain (LACΔpsmαΔpsmβΔhld). Culture filtrates were diluted 1∶20 for the PMN lysis and 1∶2 for the hemolysis measurements. PMN lysis results are from two and hemolysis data from one donor, with three replicates measured each. (E) PMN lysis of culture filtrates from MRSA252 (252) versus 252*, in which the psmα3 gene (expressing PSMα3N22Y) on the genome was changed to express PSMα3 as present in all non-CC30 strains. […] Culture filtrates were diluted 1∶10. *, p<0.05 (paired t-test). (F) Hemolysis of culture filtrates from the same strains as in (E) at different dilutions. (A–F), *, p<0.05; **, p<0.01; ***, p<0.001; ****, p<0.0001. […]
as §2

human erythrocytes = experiment: Hemolysis; conditions: synthetic peptides, 37°C, 1 h, 2% erythrocytes, OD 540 nm; 2 donors, triplicate; compared to PSMα3N22Y
Description: as §3, with “t-test).” for “t-test). (F) Hemolysis of culture filtrates from the same strains as in (E) at different dilutions. (A–F), *, p<0.05; **, p<0.01; ***, p<0.001; ****, p<0.0001.”
Hemolysis assays were performed according to Wang et al. Briefly, whole blood from humans was washed twice with ice-cold DPBS. […] After incubation at 37°C for 1 h, the plates were centrifuged at 233×g at 4°C for 5 min, supernatants were collected, and the optical density was measured at 540 nm.

[3] = Ca2+ flux, transfected HL60 cells

Structure (SMILES) | Chemotaxis with addition of FPR2 blocking agent FLIPr, 100 nM peptide (human neutrophils [1]) | Difference in chemotactic potential between the two peptides with FPR2 blocked, 1 µM peptide (human neutrophils [1]; peptide 1 µM) | FPR2-activating potential, PSMα3 versus PSMα3N22Y (FPR2; [3]) | Activation of FPR2 relative to FPR1 and FPR3 (FPR2; [3]) | Kd (FPR2; one site-binding model from Ca2+ flux, synthetic peptides, FPR2-transfected HL60 cells, three biological and two technical replicates, error = standard deviation) | PMN lysis at high concentration (human neutrophils [2]) | Cytolytic capacity toward human erythrocytes (human erythrocytes) | Cytolytic capacity toward human neutrophils (human neutrophils [2]; synthetic peptides, LDH release, 2 donors, triplicate, compared to PSMα3N22Y)
CSCC[C@H](NC=O)C(=O)N[C@@H](CCC(=O)O)C(=O)N[C@@H](Cc1ccccc1)C(=O)N[C@H](C(=O)N[C@@H](C)C(=O)N[C@@H](CCCCN)C(=O)N[C@@H](CC(C)C)C(=O)N[C@@H](Cc1ccccc1)C(=O)N[C@@H](CCCCN)C(=O)N[C@@H](Cc1ccccc1)C(=O)N[C@@H](Cc1ccccc1)C(=O)N[C@@H](CCCCN)C(=O)N[C@@H](CC(=O)O)C(=O)N[C@@H](CC(C)C)C(=O)N[C@@H](CC(C)C)C(=O)NCC(=O)N[C@@H](CCCCN)C(=O)N[C@@H](Cc1ccccc1)C(=O)N[C@@H](CC(C)C)C(=O)NCC(=O)N[C@@H](CC(N)=O)C(=O)N[C@@H](Cc1ccc(O)cc1)C(=O)O)C(C)C [PSMα3N22Y] | no chemotaxis | very strong difference in chemotactic potential | no difference in the FPR2-activating potential | activated FPR2 much stronger than FPR1 and FPR3 | 10.8 ± 2.38 nM | completely lysed the neutrophils |  | 
CSCC[C@H](NC=O)C(=O)N[C@@H](CCC(=O)O)C(=O)N[C@@H](Cc1ccccc1)C(=O)N[C@H](C(=O)N[C@@H](C)C(=O)N[C@@H](CCCCN)C(=O)N[C@@H](CC(C)C)C(=O)N[C@@H](Cc1ccccc1)C(=O)N[C@@H](CCCCN)C(=O)N[C@@H](Cc1ccccc1)C(=O)N[C@@H](Cc1ccccc1)C(=O)N[C@@H](CCCCN)C(=O)N[C@@H](CC(=O)O)C(=O)N[C@@H](CC(C)C)C(=O)N[C@@H](CC(C)C)C(=O)NCC(=O)N[C@@H](CCCCN)C(=O)N[C@@H](Cc1ccccc1)C(=O)N[C@@H](CC(C)C)C(=O)NCC(=O)N[C@@H](CC(N)=O)C(=O)N[C@@H](CC(N)=O)C(=O)O)C(C)C [PSMα3] | no chemotaxis |  |  | activated FPR2 much stronger than FPR1 and FPR3 |  | completely lysed the neutrophils | significantly higher cytolytic capacities | significantly higher cytolytic capacities
